These results are taken from patent US11524968B2, “Heterocyclic compound as a protein kinase inhibitor” (HK inno.N Corporation, priority 2017, dated 2022).

Where only a bound is given, the exact number is not on record here.

In this assay the target is JAK1 (Homo sapiens (Human), UniProt P23458). In words: Analysis of JAK1 activity inhibition ability (ADP-Glo Kinase Assay). The format is biochemical. Particulars: JAK1 enzyme, ADP-Glo luminescence, ATP 250 uM, IRS-itide substrate, 30° C. 40 minutes; read-out: IC50. In outline: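 ADP-Glo luminescence read-out of ADP production, with IC50 taken as the concentration halving JAK1 activity relative to control. Enzyme was incubated 40 min at 30 °C with compound, IRS-itide (40 ng/mL) and ATP (250 uM), concentrations as prepared in pH 7.5 Tris-HCl/MgCl2/BSA/DTT buffer.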
JAK1, sequence (P23458 whole entry): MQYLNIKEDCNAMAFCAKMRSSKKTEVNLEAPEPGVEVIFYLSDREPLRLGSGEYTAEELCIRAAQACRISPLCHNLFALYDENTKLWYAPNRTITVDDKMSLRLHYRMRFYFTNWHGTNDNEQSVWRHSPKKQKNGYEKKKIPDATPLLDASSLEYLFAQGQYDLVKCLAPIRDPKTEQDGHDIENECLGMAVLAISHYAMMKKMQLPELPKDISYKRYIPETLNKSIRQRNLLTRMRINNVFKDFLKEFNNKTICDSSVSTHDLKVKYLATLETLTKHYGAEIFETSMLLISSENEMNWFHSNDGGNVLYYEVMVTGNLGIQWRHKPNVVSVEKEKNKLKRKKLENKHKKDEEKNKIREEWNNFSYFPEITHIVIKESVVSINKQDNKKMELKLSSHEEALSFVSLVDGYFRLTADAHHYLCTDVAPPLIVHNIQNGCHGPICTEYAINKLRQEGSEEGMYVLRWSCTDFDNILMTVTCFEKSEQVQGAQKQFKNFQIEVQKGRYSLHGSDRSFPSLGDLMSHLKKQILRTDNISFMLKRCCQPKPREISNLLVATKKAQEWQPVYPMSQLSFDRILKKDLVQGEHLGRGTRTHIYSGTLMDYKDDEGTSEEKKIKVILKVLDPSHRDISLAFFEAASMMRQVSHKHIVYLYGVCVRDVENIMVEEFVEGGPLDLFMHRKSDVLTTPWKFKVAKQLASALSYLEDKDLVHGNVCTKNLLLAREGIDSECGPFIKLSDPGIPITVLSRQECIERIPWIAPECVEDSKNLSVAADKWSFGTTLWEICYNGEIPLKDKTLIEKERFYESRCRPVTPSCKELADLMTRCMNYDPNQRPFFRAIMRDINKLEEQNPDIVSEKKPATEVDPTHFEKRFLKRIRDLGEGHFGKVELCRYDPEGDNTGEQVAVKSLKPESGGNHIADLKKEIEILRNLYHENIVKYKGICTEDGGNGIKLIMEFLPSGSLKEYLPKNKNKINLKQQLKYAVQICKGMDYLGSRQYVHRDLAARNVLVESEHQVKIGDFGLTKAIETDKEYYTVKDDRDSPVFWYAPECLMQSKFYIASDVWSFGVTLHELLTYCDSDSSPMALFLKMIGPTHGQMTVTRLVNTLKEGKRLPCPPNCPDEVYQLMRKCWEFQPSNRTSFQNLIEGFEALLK

As a reminder, the IC50 is the concentration at which inhibition is half-maximal. With `O=C(Nc1cc(-c2ccc(NC3CCN(C(=O)c4ccncc4)CC3)cc2)c2cc[nH]c2n1)C1CC1` [Example 507, N-(4-(4-((1-isonicotinoylpiperidin-4-yl)amino)phenyl)-1H-pyrrolo[2,3-b]pyridin-6-yl)cyclopropanecarboxamide], the IC50 is over 200 nM.

Consider `O=C(Nc1cc(-c2ccc(NC3CCN(C(=O)c4cc(F)cc(F)c4)CC3)cc2)c2cc[nH]c2n1)C1CC1` [Example 508, N-(4-(4-((1-(3,5-difluorobenzoyl)piperidin-4-yl)amino)phenyl)-1H-pyrrolo[2,3-b]pyridin-6-yl)cyclopropanecarboxamide], for which the IC50 is over 200 nM.

In the case of `O=C(Nc1cc(-c2ccc(NC3CCN(C(=O)c4ccnc(F)c4)CC3)cc2)c2cc[nH]c2n1)C1CC1` [Example 509, N-(4-(4-((1-(2-fluoroisonicotinoyl)piperidin-4-yl)amino)phenyl)-1H-pyrrolo[2,3-b]pyridin-6-yl)cyclopropanecarboxamide], the IC50 was over 200 nM.

`O=C(Nc1cc(-c2ccc(NC3CN(C(=O)c4cc(F)cc(F)c4)C3)cc2)c2cc[nH]c2n1)C1CC1` [Example 510, N-(4-(4-((1-(3,5-difluorobenzoyl)azetidin-3-yl)amino)phenyl)-1H-pyrrolo[2,3-b]pyridin-6-yl)cyclopropanecarboxamide]: the IC50 was over 200 nM.

As for `O=C(Nc1cc(-c2ccc(NC3CCN(C(=O)Nc4ccc(F)cc4F)CC3)cc2)c2cc[nH]c2n1)C1CC1` [Example 511, 4-((4-(6-(cyclopropanecarboxamido)-1H-pyrrolo[2,3-b]pyridin-4-yl)phenyl)amino)-N-(2,4-difluorophenyl)piperidine-1-carboxamide], the concentration for half-maximal inhibition (IC50) fell in the range of 20 to 200 nM.

In the case of `O=C(Nc1cc(-c2ccc(NC3CCN(C(=O)NCC(F)(F)F)CC3)cc2)c2cc[nH]c2n1)C1CC1` [Example 512, 4-((4-(6-(cyclopropanecarboxamido)-1H-pyrrolo[2,3-b]pyridin-4-yl)phenyl)amino)-N-(2,2,2-trifluoroethyl)piperidine-1-carboxamide], the IC50 fell in the range of 20 to 200 nM.

On to `O=C(Nc1cc(-c2ccc(NC3CN(C(=O)Nc4ccc(F)cc4F)C3)cc2)c2cc[nH]c2n1)C1CC1` [Example 513, 3-((4-(6-(cyclopropanecarboxamido)-1H-pyrrolo[2,3-b]pyridin-4-yl)phenyl)amino)-N-(2,4-difluorophenyl)azetidine-1-carboxamide], for which the IC50 is over 200 nM.

Take `O=C(Nc1cc(-c2ccc(NC3CN(C(=O)NCC(F)(F)F)C3)cc2)c2cc[nH]c2n1)C1CC1` [Example 514, 3-((4-(6-(cyclopropanecarboxamido)-1H-pyrrolo[2,3-b]pyridin-4-yl)phenyl)amino)-N-(2,2,2-trifluoroethyl)azetidine-1-carboxamide]: the IC50 was over 200 nM.

Take `N#CCC(=O)N1CC(Nc2ccc(-c3cc(NC(=O)C4CC4)nc4[nH]ccc34)cc2)C1` [Example 515, N-(4-(4-((1-(2-cyanoacetyl)azetidin-3-yl)amino)phenyl)-1H-pyrrolo[2,3-b]pyridin-6-yl)cyclopropanecarboxamide]: the IC50 is 20 to 200 nM.

For `N#CCC(=O)N1CCC(Nc2ccc(-c3cc(NC(=O)C4CC4)nc4[nH]ccc34)cc2)CC1` [Example 516, N-(4-(4-((1-(2-cyanoacetyl)piperidin-4-yl)amino)phenyl)-1H-pyrrolo[2,3-b]pyridin-6-yl)cyclopropanecarboxamide], the 50% inhibitory concentration (IC50) lay within 20 to 200 nM.

Turning to `O=C(Nc1cc(-c2ccc(NC3CN(C(=O)CC(F)(F)F)C3)cc2)c2cc[nH]c2n1)C1CC1` [Example 517, N-(4-(4-((1-(3,3,3-trifluoropropanoyl)azetidin-3-yl)amino)phenyl)-1H-pyrrolo[2,3-b]pyridin-6-yl)cyclopropanecarboxamide], the IC50 is 20 to 200 nM.

Turning to `O=C(Nc1cc(-c2ccc(NC3CCN(C(=O)CC(F)(F)F)CC3)cc2)c2cc[nH]c2n1)C1CC1` [Example 518, N-(4-(4-((1-(3,3,3-trifluoropropanoyl)piperidin-4-yl)amino)phenyl)-1H-pyrrolo[2,3-b]pyridin-6-yl)cyclopropanecarboxamide], the IC50 was over 200 nM.

With `N#CCC(=O)c1ccc(-c2cc(NC(=O)C3CC3)nc3[nH]ccc23)cc1` [Example 519, N-(4-(4-(2-cyanoacetyl)phenyl)-1H-pyrrolo[2,3-b]pyridin-6-yl)cyclopropanecarboxamide], the IC50 is over 200 nM.

On to `O=C(Nc1cc(-c2ccc(C(=O)N3CCS(=O)(=O)CC3)cc2)c2cc[nH]c2n1)C1CC1` [Example 520, N-(4-(4-(1,1-dioxidothiomorpholine-4-carbonyl)phenyl)-1H-pyrrolo[2,3-b]pyridin-6-yl)cyclopropanecarboxamide], for which the half-maximal inhibitory concentration (IC50) is over 200 nM.

Consider `O=C(Nc1cc(-c2ccc(C(=O)N3CCSCC3)cc2)c2cc[nH]c2n1)C1CC1` [Example 521, N-(4-(4-(thiomorpholine-4-carbonyl)phenyl)-1H-pyrrolo[2,3-b]pyridin-6-yl)cyclopropanecarboxamide], for which the IC50 is 20 to 200 nM.

Regarding `Cc1cc(C(=O)N2CCOCC2)ccc1-c1cc(NC(=O)C2CC2)nc2[nH]ccc12` [Example 522, N-(4-(2-methyl-4-(morpholine-4-carbonyl)phenyl)-1H-pyrrolo[2,3-b]pyridin-6-yl)cyclopropanecarboxamide], the IC50 is 20 to 200 nM.

Turning to `N#CCNC(=O)c1ccc(-c2cc(NC(=O)C3CC3)nc3[nH]ccc23)cc1` [Example 523, N-(cyanomethyl)-4-(6-(cyclopropanecarboxamido)-1H-pyrrolo[2,3-b]pyridin-4-yl)benzamide], the 50% inhibitory concentration (IC50) is under 20 nM.

Take `O=C(NCC(F)(F)F)c1ccc(-c2cc(NC(=O)C3CC3)nc3[nH]ccc23)cc1` [Example 524, 4-(6-(cyclopropanecarboxamido)-1H-pyrrolo[2,3-b]pyridin-4-yl)-N-(2,2,2-trifluoroethyl)benzamide]: the IC50 is under 20 nM.

With `Cc1cc(C(=O)NCC(F)(F)F)ccc1-c1cc(NC(=O)C2CC2)nc2[nH]ccc12` [Example 525, 4-(6-(cyclopropanecarboxamido)-1H-pyrrolo[2,3-b]pyridin-4-yl)-3-methyl-N-(2,2,2-trifluoroethyl)benzamide], the IC50 fell in the range of 20 to 200 nM.

For the compound `Cc1cc(C(=O)NCC#N)ccc1-c1cc(NC(=O)C2CC2)nc2[nH]ccc12` [Example 526, N-(cyanomethyl)-4-(6-(cyclopropanecarboxamido)-1H-pyrrolo[2,3-b]pyridin-4-yl)-3-methylbenzamide], the IC50 is 20 to 200 nM.

Regarding `Cc1cc(C(=O)N(C)CC#N)ccc1-c1cc(NC(=O)C2CC2)nc2[nH]ccc12` [Example 527, N-(cyanomethyl)-4-(6-(cyclopropanecarboxamido)-1H-pyrrolo[2,3-b]pyridin-4-yl)-N,3-dimethylbenzamide], the IC50 is over 200 nM.

On to `N#CCNC(=O)c1ccc(-c2cc(NC(=O)C3CC3)nc3[nH]ccc23)cc1F` [Example 528, N-(cyanomethyl)-4-(6-(cyclopropanecarboxamido)-1H-pyrrolo[2,3-b]pyridin-4-yl)-2-fluorobenzamide], for which the half-maximal inhibitory concentration (IC50) is 20 to 200 nM.

With `N#CCNC(=O)c1c(F)cc(-c2cc(NC(=O)C3CC3)nc3[nH]ccc23)cc1F` [Example 529, N-(cyanomethyl)-4-(6-(cyclopropanecarboxamido)-1H-pyrrolo[2,3-b]pyridin-4-yl)-2,6-difluorobenzamide], the IC50 was 20 to 200 nM.

As for `N#CCNC(=O)C1CC=C(c2cc(NC(=O)C3CC3)nc3[nH]ccc23)CC1` (centres unmarked) [Example 530, N-(cyanomethyl)-4-(6-(cyclopropanecarboxamido)-1H-pyrrolo[2,3-b]pyridin-4-yl)cyclohex-3-ene-1-carboxamide], the half-inhibitory concentration (IC50) is 20 to 200 nM.

For `O=C(NCC(F)(F)F)C1CC=C(c2cc(NC(=O)C3CC3)nc3[nH]ccc23)CC1` (centres unmarked) [Example 531, 4-(6-(cyclopropanecarboxamido)-1H-pyrrolo[2,3-b]pyridin-4-yl)-N-(2,2,2-trifluoroethyl)cyclohex-3-ene-1-carboxamide], the IC50 lay in the range of 20 to 200 nM.

For `N#CCCNC(=O)C1CC=C(c2cc(NC(=O)C3CC3)nc3[nH]ccc23)CC1` (centres unmarked) [Example 532, N-(2-cyanoethyl)-4-(6-(cyclopropanecarboxamido)-1H-pyrrolo[2,3-b]pyridin-4-yl)cyclohex-3-ene-1-carboxamide], the concentration for half-maximal inhibition (IC50) fell in the range of 20 to 200 nM.

Turning to `CNS(=O)(=O)Cc1ccc(-c2cc(NC(=O)C3CC3)nc3[nH]ccc23)cc1` [Example 533, N-(4-(4-((N-methylsulfamoyl)methyl)phenyl)-1H-pyrrolo[2,3-b]pyridin-6-yl)cyclopropanecarboxamide], the IC50 lay within 20 to 200 nM.

As for `O=C(Nc1cc(-c2ccc(CS(=O)(=O)N3CCOCC3)cc2)c2cc[nH]c2n1)C1CC1` [Example 534, N-(4-(4-((morpholinosulfonyl)methyl)phenyl)-1H-pyrrolo[2,3-b]pyridin-6-yl)cyclopropanecarboxamide], the IC50 is over 200 nM.

As to `O=C(Nc1cc(-c2ccc(CC(=O)N3CCS(=O)(=O)CC3)cc2)c2cc[nH]c2n1)C1CC1` [Example 535, N-(4-(4-(2-(1,1-dioxidothiomorpholino)-2-oxoethyl)phenyl)-1H-pyrrolo[2,3-b]pyridin-6-yl)cyclopropanecarboxamide], the half-inhibitory concentration (IC50) lay in the range of 20 to 200 nM.

With `O=C(Nc1cc(-c2ccc(CC(=O)N3CCOCC3)cc2)c2cc[nH]c2n1)C1CC1` [Example 536, N-(4-(4-(2-morpholino-2-oxoethyl)phenyl)-1H-pyrrolo[2,3-b]pyridin-6-yl)cyclopropanecarboxamide], the IC50 is 20 to 200 nM.

Consider `O=C(Cc1ccc(-c2cc(NC(=O)C3CC3)nc3[nH]ccc23)cc1)NCC(F)(F)F` [Example 537, N-(4-(4-(2-oxo-2-((2,2,2-trifluoroethyl)amino)ethyl)phenyl)-1H-pyrrolo[2,3-b]pyridin-6-yl)cyclopropanecarboxamide], for which the IC50 fell in the range of 20 to 200 nM.

Take `O=C(Cc1ccc(-c2cc(NC(=O)C3CC3)nc3[nH]ccc23)cc1)NC1CCS(=O)(=O)C1` (centres unmarked) [Example 538, N-(4-(4-(2-((1,1-dioxidotetrahydrothiophen-3-yl)amino)-2-oxoethyl)phenyl)-1H-pyrrolo[2,3-b]pyridin-6-yl)cyclopropanecarboxamide]: the IC50 lay within 20 to 200 nM.
